# Target: T1, human mGlu2 receptor (Homo sapiens, UniProt Q14416)
# T1 construct: expressed in transfected cells; host or cells: CHO cells
# Experiment: [35S]GTPγS binding assay, mGluR2 PAM
# Format: biochemical
# Conditions: GTPγS - hmGluR2 PAM pEC50, in presence of glutamate at EC20; EC50 expressed in M
# Description: [^35S]GTPγS Binding Assay
# The [^35S]GTPγS binding assay is a functional membrane-based assay used to study G-protein coupled receptor (GPCR) function whereby incorporation of a non-hydrolysable form of GTP, [^35S]GTPγS (guanosine 5′-triphosphate, labelled with […] ^35S), is measured.
# Cells were then collected by scraping in PBS and cell suspension was centrifuged (10 min at 4000 RPM in benchtop centrifuge). Supernatant was discarded and pellet gently resuspended in 50 mM Tris-HCl, pH 7.4 by mixing with a vortex and pipetting up and down. The suspension was centrifuged at 16,000 RPM (Sorvall RC-5C plus rotor SS-34) for 10 minutes and the supernatant discarded. The pellet was homogenized in 5 mM Tris-HCl, pH 7.4 using an ultra-turrax homogenizer and centrifuged again (18,000 RPM, 20 min, 4° C.). The final pellet was resuspended in 50 mM Tris-HCl, pH 7.4 and stored at −80° C. in appropriate aliquots before use. Protein concentration was determined by the Bradford method (Bio-Rad, USA) with bovine serum albumin as standard.
# Measurement of mGluR2 positive allosteric modulatory activity of test compounds was performed as follows. Test compounds and glutamate were diluted in assay buffer containing 10 mM HEPES acid, 10 mM HEPES salt, pH 7.4, 100 mM NaCl, 3 mM MgCl2 and 10 μM GDP. Human mGlu2 receptor-containing membranes were thawed on ice and diluted in assay buffer supplemented with 14 μg/ml saponin. Membranes were pre-incubated with compound alone or together with a predefined (˜EC20) concentration of glutamate (PAM assay) for 30 min at 30° C. After addition of [^35S]GTPγS (f c. 0.1 nM), assay mixtures were shaken briefly and further incubated to allow [^35S]GTPγS incorporation on activation (30 minutes, 30° C.). Final assay mixtures contained 7 μg of membrane protein in 10 mM HEPES acid, 10 mM HEPES salt, pH 7.4, 100 mM NaCl, 3 mM MgCl2, 10 μM GDP and 2 μg/ml saponin. […] Filters were washed 6 times with ice-cold 10 mM NaH2PO4/10 mM Na2HPO4, pH 7.4. Filters were then air-dried, and 40 μl of liquid scintillation cocktail (Microscint-O) was added to each well. Membrane-bound radioactivity was counted in a Microplate Scintillation and Luminescence Counter from Perkin Elmer.
# The concentration-response curves of representative compounds of the present invention—obtained in the presence of EC20 of mGluR2 agonist glutamate to determine positive allosteric modulation (PAM)—were generated using the Lexis software interface (developed at J&J). Data were calculated as % of the control glutamate response, defined as the maximal response that is generated upon addition of glutamate alone. Sigmoid concentration-response curves plotting these percentages versus the log concentration of the test compound were analyzed using non-linear regression analysis. The concentration producing half-maximal effect is then calculated as EC50.
# The pEC50 values below were calculated as the −log EC50, when the EC50 is expressed in M. Emax is defined as relative maximal effect (i.e. maximal % effect relative to the control glutamate response).
# All compounds were tested in presence of mGluR2 agonist glutamate at a predetermined EC20 concentration, to determine positive allosteric modulation. pEC50 values were calculated from a concentration-response experiment of at least 8 concentrations.
# T1 sequence (Q14416 19-872): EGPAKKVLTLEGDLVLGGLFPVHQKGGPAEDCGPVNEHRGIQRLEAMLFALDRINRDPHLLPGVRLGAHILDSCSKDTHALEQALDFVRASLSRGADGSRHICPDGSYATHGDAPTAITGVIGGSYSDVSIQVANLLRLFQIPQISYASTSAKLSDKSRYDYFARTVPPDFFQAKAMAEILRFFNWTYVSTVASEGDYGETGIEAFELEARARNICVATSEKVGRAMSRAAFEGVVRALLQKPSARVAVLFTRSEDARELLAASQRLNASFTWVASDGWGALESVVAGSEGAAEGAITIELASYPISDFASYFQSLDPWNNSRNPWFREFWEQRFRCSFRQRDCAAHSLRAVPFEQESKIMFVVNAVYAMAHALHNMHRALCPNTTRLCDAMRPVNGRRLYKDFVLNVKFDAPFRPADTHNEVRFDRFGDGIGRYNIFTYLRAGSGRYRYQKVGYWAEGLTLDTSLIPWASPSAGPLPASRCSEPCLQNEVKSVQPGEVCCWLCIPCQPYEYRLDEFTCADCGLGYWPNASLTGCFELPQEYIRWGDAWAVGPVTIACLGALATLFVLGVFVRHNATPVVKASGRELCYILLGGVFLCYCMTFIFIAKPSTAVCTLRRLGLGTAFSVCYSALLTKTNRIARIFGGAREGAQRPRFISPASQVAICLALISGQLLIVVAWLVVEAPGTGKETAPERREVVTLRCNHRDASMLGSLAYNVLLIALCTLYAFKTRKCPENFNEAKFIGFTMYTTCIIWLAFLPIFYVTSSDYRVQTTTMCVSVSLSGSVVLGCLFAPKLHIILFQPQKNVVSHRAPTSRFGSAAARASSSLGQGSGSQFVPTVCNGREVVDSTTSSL
row,SMILES,EC50 [nM]
1,"CC(Oc1ccc(F)cc1F)c1ccn2c(CC3CCC3)nnc2c1C(F)(F)F (single isomer, unassigned) [Compound 17, 3-(Cyclobutylmethyl)-7-[(1*R)-1-(2,4-difluorophenoxy)ethyl]-8-(trifluoromethyl)[1,2,4]triazolo[4,3-a]pyridine]",18.6
2,"CC(Oc1ccc(F)cc1F)c1ccn2c(CC3CCC3)nnc2c1C(F)(F)F (single isomer, unassigned) [Compound 18, 3-(Cyclobutylmethyl)-7-[(1*S)-1-(2,4-difluorophenoxy)ethyl]-8-(trifluoromethyl)[1,2,4]triazolo[4,3-a]pyridine]",575
3,"CCOCc1nnc2c(C(F)(F)F)c(C(C)Oc3c(F)cc(F)cc3F)ccn12 (single isomer, unassigned) [Compound 22, 3-(Ethoxymethyl)-8-(trifluoromethyl)-7-[(1*R)-1-(2,4,6-trifluorophenoxy)ethyl][1,2,4]triazolo[4,3-a]pyridine]",24.5
4,"CCOCc1nnc2c(C(F)(F)F)c(C(C)Oc3c(F)cc(F)cc3F)ccn12 (single isomer, unassigned) [Compound 23, 3-(Ethoxymethyl)-8-(trifluoromethyl)-7-[(1*S)-1-(2,4,6-trifluorophenoxy)ethyl][1,2,4]triazolo[4,3-a]pyridine]",1150
5,"CC(Oc1ccc(F)cc1F)c1ccn2c(CC3CCC3)nnc2c1C(F)(F)F (centres unmarked) [Compound 16, 3-(Cyclobutylmethyl)-7-[1-(2,4-difluorophenoxy)ethyl]-8-(trifluoromethyl)[1,2,4]triazolo[4,3-a]pyridine]",28.8

# Same assay, conditions: in presence of glutamate at EC20; EC50 expressed in M; read-out: GTPγS - hmGluR2 PAM pEC50 (converted)
row,EC50 [nM],SMILES
1,145,"CC(Oc1ccc(F)cc1)c1ccn2c(CC3CC3)nnc2c1C(F)(F)F (single isomer, unassigned) [Compound 2, 3-(Cyclopropylmethyl)-7-[(1*R)-1-(4-fluorophenoxy)ethyl]-8-(trifluoromethyl)[1,2,4]triazolo[4,3-a]pyridine]"
2,1620,"CC(Oc1ccc(F)cc1)c1ccn2c(CC3CC3)nnc2c1C(F)(F)F (single isomer, unassigned) [Compound 3, 3-(Cyclopropylmethyl)-7-[(1*S)-1-(4-fluorophenoxy)ethyl]-8-(trifluoromethyl)[1,2,4]triazolo[4,3-a]pyridine]"
3,89.1,"CCCc1nnc2c(C(F)(F)F)c(C(C)Oc3ccc(F)cc3F)ccn12 (single isomer, unassigned) [Compound 31]"
4,1950,"CCCc1nnc2c(C(F)(F)F)c(C(C)Oc3ccc(F)cc3F)ccn12 (single isomer, unassigned) [Compound 32]"
5,257,"CC(Oc1ccc(F)cc1)c1ccn2c(CC3CC3)nnc2c1C(F)(F)F (centres unmarked) [Compound 1, 3-(Cyclopropylmethyl)-7-[1-(4-fluorophenoxy)ethyl]-8-(trifluoromethyl)[1,2,4]triazolo[4,3-a]pyridine]"
6,91.2,"CC(Oc1ccc(F)cc1F)c1ccn2c(CC3CC3)nnc2c1C(F)(F)F (centres unmarked) [Compound 4, 3-(Cyclopropylmethyl)-7-[1-(2,4-difluorophenoxy)ethyl]-8-(trifluoromethyl)[1,2,4]triazolo[4,3-a]pyridine]"
7,871,"C[C@@H](Oc1ccc(F)cc1F)c1ccn2c(CC3CC3)nnc2c1C(F)(F)F [Compound 5, 3-(Cyclopropylmethyl)-7-[(1R)-1-(2,4-difluorophenoxy)ethyl]-8-(trifluoromethyl)[1,2,4]triazolo[4,3-a]pyridine]"
8,49,"C[C@H](Oc1cc(F)cc(F)c1)c1ccn2c(CC3CC3)nnc2c1C(F)(F)F [Compound 7, 3-(Cyclopropylmethyl)-7-[(1S)-1-(3,5-difluorophenoxy)ethyl]-8-(trifluoromethyl)[1,2,4]triazolo[4,3-a]pyridine]"
9,91.2,"C[C@H](Oc1ccc(F)c(F)c1)c1ccn2c(CC3CC3)nnc2c1C(F)(F)F [Compound 8, 3-(Cyclopropylmethyl)-7-[(1S)-1-(3,4-difluorophenoxy)ethyl]-8-(trifluoromethyl)[1,2,4]triazolo[4,3-a]pyridine]"
10,50.1,"C[C@H](Oc1cccc(F)c1F)c1ccn2c(CC3CC3)nnc2c1C(F)(F)F [Compound 9, 3-(Cyclopropylmethyl)-7-[(1S)-1-(2,3-difluorophenoxy)ethyl]-8-(trifluoromethyl)[1,2,4]triazolo[4,3-a]pyridine]"
11,33.9,"C[C@H](Oc1cc(F)ccc1F)c1ccn2c(CC3CC3)nnc2c1C(F)(F)F [Compound 10, 3-(Cyclopropylmethyl)-7-[(1S)-1-(2,5-difluorophenoxy)ethyl]-8-(trifluoromethyl)[1,2,4]triazolo[4,3-a]pyridine]"
12,5.62,"C[C@H](Oc1c(F)cccc1F)c1ccn2c(CC3CC3)nnc2c1C(F)(F)F [Compound 11, 3-(Cyclopropylmethyl)-7-[(1S)-1-(2,6-difluorophenoxy)ethyl]-8-(trifluoromethyl)[1,2,4]triazolo[4,3-a]pyridine]"
13,102,"COc1cc(F)ccc1O[C@@H](C)c1ccn2c(CC3CC3)nnc2c1C(F)(F)F [Compound 12, 3-(Cyclopropylmethyl)-7-[(1S)-1-(4-fluoro-2-methoxyphenoxy)ethyl]-8-(trifluoromethyl)[1,2,4]triazolo[4,3-a]pyridine]"
14,17.8,"Cc1ccc(O[C@@H](C)c2ccn3c(CC4CC4)nnc3c2C(F)(F)F)c(Cl)c1 [Compound 13, 7-[(1S)-1-(2-Chloro-4-methylphenoxy)ethyl]-3-(cyclopropylmethyl)-8-(trifluoromethyl)[1,2,4]triazolo[4,3-a]pyridine]"
15,29.5,"Cc1cc(F)ccc1O[C@@H](C)c1ccn2c(CC3CC3)nnc2c1C(F)(F)F [Compound 14, 3-(Cyclopropylmethyl)-7-[(1 S)-1-(4-fluoro-2-methylphenoxy)ethyl]-8-(trifluoromethyl)[1,2,4]triazolo[4,3-a]pyridine]"
16,126,"CCCc1nnc2c(C(F)(F)F)c(C(C)Oc3ccc(F)cc3F)ccn12 (centres unmarked) [Compound 30, 7-[1-(2,4-Difluorophenoxy)ethyl]-3-propyl-8-(trifluoromethyl)[1,2,4]triazolo[4,3-a]pyridine]"

row,SMILES,EC50 [nM]
1,"CCOCc1nnc2c(C(F)(F)F)c(C(C)Oc3ccc(F)cc3F)ccn12 (single isomer, unassigned) [Compound 20, 7-[(1*R)-1-(2,4-Difluorophenoxy)ethyl]-3-(ethoxymethyl)-8-(trifluoromethyl)[1,2,4]triazolo[4,3-a]pyridine]",85.1
2,"CCOCc1nnc2c(C(F)(F)F)c(C(C)Oc3ccc(F)cc3F)ccn12 (single isomer, unassigned) [Compound 21, 7-[(1*S)-1-(2,4-Difluorophenoxy)ethyl]-3-(ethoxymethyl)-8-(trifluoromethyl)[1,2,4]triazolo[4,3-a]pyridine]",479
3,"C[C@H](Oc1c(F)cc(F)cc1F)c1ccn2c(CC3CC3)nnc2c1C(F)(F)F [Compound 15, 3-(Cyclopropylmethyl)-8-(trifluoromethyl)-7-[(1S)-1-(2,4,6-trifluorophenoxy)ethyl][1,2,4]triazolo[4,3-a]pyridine]",6.92
4,"CCOCc1nnc2c(C(F)(F)F)c(C(C)Oc3ccc(F)cc3F)ccn12 (centres unmarked) [Compound 19, 7-[1-(2,4-Difluorophenoxy)ethyl]-3-(ethoxymethyl)-8-(trifluoromethyl)[1,2,4]triazolo[4,3-a]pyridine]",195

# Same assay, conditions: maximal % effect relative to the control glutamate response; glutamate at EC20
row,SMILES,GTPγS - hmGluR2 PAM Emax [%]
1,"CC(Oc1ccc(F)cc1F)c1ccn2c(CC3CCC3)nnc2c1C(F)(F)F (single isomer, unassigned) [Compound 18, 3-(Cyclobutylmethyl)-7-[(1*S)-1-(2,4-difluorophenoxy)ethyl]-8-(trifluoromethyl)[1,2,4]triazolo[4,3-a]pyridine]",213

# Same assay, conditions: read-out: GTPγS - hmGluR2 PAM Emax, maximal % effect relative to the control glutamate response; glutamate at EC20
row,SMILES,Emax [%]
1,"CC(Oc1ccc(F)cc1F)c1ccn2c(CC3CCC3)nnc2c1C(F)(F)F (single isomer, unassigned) [Compound 17, 3-(Cyclobutylmethyl)-7-[(1*R)-1-(2,4-difluorophenoxy)ethyl]-8-(trifluoromethyl)[1,2,4]triazolo[4,3-a]pyridine]",317
2,"CC(Oc1ccc(F)cc1F)c1ccn2c(CC3CCC3)nnc2c1C(F)(F)F (centres unmarked) [Compound 16, 3-(Cyclobutylmethyl)-7-[1-(2,4-difluorophenoxy)ethyl]-8-(trifluoromethyl)[1,2,4]triazolo[4,3-a]pyridine]",284
3,"CCOCc1nnc2c(C(F)(F)F)c(C(C)Oc3ccc(F)cc3F)ccn12 (centres unmarked) [Compound 19, 7-[1-(2,4-Difluorophenoxy)ethyl]-3-(ethoxymethyl)-8-(trifluoromethyl)[1,2,4]triazolo[4,3-a]pyridine]",297

# Reference: US9708315B2, “1,2,4-triazolo[4,3-a]pyridine compounds and their use as positive allosteric modulators of MGLUR2 receptors” (Janssen Pharmaceutica NV, priority 2013, dated 2017)
